Reference: ChEMBL document CHEMBL3826929, “Discovery and Preclinical Evaluation of BMS-711939, an Oxybenzylglycine Based PPARα Selective Agonist” (ACS Med Chem Lett, 2016)

Columns and labels:
[1] = Tmax in Sprague-Dawley rat at 8 mg/kg, po; type: ADME, organism-based; details: in vivo
[2] = target: Nuclear receptor subfamily 1 group I member 2 (Homo sapiens, UniProt O75469); test: Activation of PXR (unknown origin); type: ADME
Mus musculus [3] = test: Increase in ApoA1 level in transgenic mouse expressing human ApoA1 at 50 mg/kg administered qd through oral gavage measured after 10 days relative to vehicle-treated control; type: functional
[4] = Volume of distribution at steady state in cynomolgus monkey at 1 mg/kg, iv; type: ADME, organism-based, Macaca fascicularis; details: in vivo, read-out: Vdss
[5] = target: Peroxisome proliferator-activated receptor delta (Homo sapiens) (UniProt Q03181); test: Agonist activity against human PPAR-delta by transactivation assay relative to standard compound
Syrian golden hamster [6] = test: Decrease in plasma LDL cholesterol level in high fat-diet fed syrian golden hamster model of dyslipidemia at 10 mg/kg administered qd through oral gavage measured after 21 days by FPLC analysis relative to control; type: functional, Mesocricetus auratus; parameters: scale not given: the % may be the effect or the level left
[7] = Plasma clearance in Balb/c mouse at 5 mg/kg, iv; type: ADME, organism-based
[8] = Oral bioavailability in Sprague-Dawley rat at 8 mg/kg; type: ADME, organism-based; details: in vivo
[9] = Half life in Sprague-Dawley rat at 4 mg/kg, iv; type: ADME, organism-based; details: in vivo
Mus musculus [10] = test: Increase in ApoA1 level in transgenic mouse expressing human ApoA1 at 10 mg/kg administered qd through oral gavage measured after 10 days relative to vehicle-treated control; type: functional
Rhesus monkey = test: Cardiovascular toxicity in monkey assessed as change in electrocardiographic effect up to 20 mg/kg administered as single dose by telemetry test; type: organism-based, Macaca mulatta; details: in vivo
[11] = Tmax in Balb/c mouse at 10 mg/kg, po; type: ADME, organism-based; details: in vivo
Salmonella typhimurium = test: Genotoxicity in Salmonella typhimurium TA98 up to 5000 ug by Ames test; type: toxicity, organism-based; details: salmonella enterica subsp. enterica serovar typhimurium
[12] = Half life in Balb/c mouse at 5 mg/kg, iv; type: ADME, organism-based; details: in vivo
[13] = Plasma clearance in Sprague-Dawley rat at 4 mg/kg, iv; type: ADME, organism-based
Syrian golden hamster [14] = test: Decrease in plasma LDL cholesterol level in high fat-diet fed syrian golden hamster model of dyslipidemia at 3 mg/kg administered qd through oral gavage measured after 21 days by FPLC analysis relative to control; type: functional, Mesocricetus auratus; parameters: scale not given: the % may be the effect or the level left
[15] = Protein binding in cynomolgus monkey plasma; type: ADME, cell-free, Macaca fascicularis; details: read-out: PPB
[16] = Protein binding in rat plasma; type: ADME, cell-free; details: read-out: PPB (converted)
Mus musculus [17] = test: Decrease in triglyceride level in transgenic mouse expressing human ApoA1 at 3 mg/kg administered qd through oral gavage measured after 10 days relative to vehicle control; type: functional; parameters: scale not given: the % may be the effect or the level left
[18] = Tmax in dog at 2 mg/kg, po; type: ADME, organism-based, Canis lupus familiaris; details: in vivo
Mus musculus [19] = test: Increase in HDL cholesterol level in transgenic mouse expressing human ApoA1 compound administered qd through oral gavage measured after 10 days; type: functional, organism-based
[20] = Protein binding in human plasma; type: ADME, cell-free; details: read-out: PPB (converted)

Sequence of Peroxisome proliferator-activated receptor delta (Homo sapiens) (Q03181 whole entry): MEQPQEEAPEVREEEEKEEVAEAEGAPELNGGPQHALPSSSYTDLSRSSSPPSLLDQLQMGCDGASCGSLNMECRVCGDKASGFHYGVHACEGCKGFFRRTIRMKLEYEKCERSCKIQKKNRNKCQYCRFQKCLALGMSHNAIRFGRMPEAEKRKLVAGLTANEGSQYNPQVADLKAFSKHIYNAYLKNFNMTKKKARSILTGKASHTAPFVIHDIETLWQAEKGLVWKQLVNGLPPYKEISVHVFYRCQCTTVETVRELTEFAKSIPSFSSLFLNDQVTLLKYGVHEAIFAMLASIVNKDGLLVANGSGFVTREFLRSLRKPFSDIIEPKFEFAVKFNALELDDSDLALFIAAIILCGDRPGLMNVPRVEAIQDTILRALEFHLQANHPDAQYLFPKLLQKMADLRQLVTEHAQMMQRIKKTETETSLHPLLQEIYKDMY
Sequence of Nuclear receptor subfamily 1 group I member 2 (O75469 whole entry): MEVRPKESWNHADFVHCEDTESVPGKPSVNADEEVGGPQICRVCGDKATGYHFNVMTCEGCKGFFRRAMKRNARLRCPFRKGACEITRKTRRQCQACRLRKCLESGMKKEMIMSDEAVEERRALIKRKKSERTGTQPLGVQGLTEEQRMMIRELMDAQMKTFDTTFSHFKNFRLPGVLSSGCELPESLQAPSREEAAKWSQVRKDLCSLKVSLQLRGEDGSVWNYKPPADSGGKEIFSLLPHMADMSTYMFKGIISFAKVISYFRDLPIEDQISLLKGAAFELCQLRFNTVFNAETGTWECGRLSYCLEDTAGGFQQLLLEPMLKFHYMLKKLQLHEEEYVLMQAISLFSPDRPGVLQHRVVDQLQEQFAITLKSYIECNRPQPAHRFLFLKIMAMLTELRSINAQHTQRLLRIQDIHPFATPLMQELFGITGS

Structure (SMILES): COC(=O)N(CC(=O)O)Cc1cc(OCc2nc(-c3ccc(Cl)cc3)oc2C)ccc1F
- Tmax [1]: 18 min
- EC60 [2]: > 50 µM
- Activity (Mus musculus [3]): 747%
- Vd [4]: 3.9 L/kg
- Efficacy [5]: < 15%
- Activity (Syrian golden hamster [6]): 87%
- clearance [7]: 13.8 mL/min/kg
- bioavailability [8]: 100%
- half-life [9]: 198 min
- Activity (Mus musculus [10]): 400%
- Activity (Rhesus monkey): Non-toxic
- Tmax [11]: 15 min
- Activity (Salmonella typhimurium): Non-toxic
- half-life [12]: 108 min
- clearance [13]: 15.3 mL/min/kg
- Activity (Syrian golden hamster [14]): 61%
- fraction unbound [15]: 0.01
- fraction unbound [16]: 0.004
- Activity (Mus musculus [17]): 14.2%
- Tmax [18]: 48 min
- Activity (Mus musculus [19]): Dose-dependent effect
- fraction unbound [20]: 0.003
